system: RSV A2; test: Screening for RSV inhibition using Viral ToxGlo assay (cytopathic effect inhibition in HEp-2 cells); format: cell-based, Respiratory Syncytial Virus (RSV); settings: human respiratory syncytial virus; RSV A2 in HEp-2 cells, MOI 0.5, 72h p.i., cytopathic effect inhibition relative to virus control, Viral ToxGlo luminescence
Procedure, shortened: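 HEp-2 cells in 2% FBS medium infected with RSV A2 right after compound addition (max 1% DMSO), uninfected wells used for cytotoxicity. After 72 h p.i. at 37 °C/5% CO2, cell viability read by Viral ToxGlo luminescence as measure of cytopathic effect.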

Structure (SMILES)	EC50 [nM]
O=C(N=C1NCCN1)c1cc(F)c(Nc2cccc(C(=O)N3CCOCC3C(F)(F)F)c2)c(C2CC2)c1 (stereo not drawn) [Compound 142, 3-cyclopropyl-5-fluoro-N-[imidazolidin-2-ylidene]-4-({3-[3-(trifluoromethyl)morpholine-4-carbonyl]phenyl}amino)benzamide]	41.4
CC(C)CCNC(=O)c1cccc(Nc2ccc(C(=O)N=C3NCCN3)cc2C(C)(C)O)c1 [Compound 44, 3-(2-hydroxypropan-2-yl)-N-[(2E)-imidazolidin-2-ylidene]-4-({3-[(3-methylbutyl)carbamoyl]phenyl}amino)benzamide]	90.4
Cc1c(Nc2ccc(C(=O)N=C3NCCN3)cc2C2CC2)cccc1-c1ncc(Cl)[nH]1 [Compound 57, 4-{[3-(5-chloro-1H-imidazol-2-yl)-2-methylphenyl]amino}-3-cyclopropyl-N-[(2Z)-imidazolidin-2-ylidene]benzamide]	200
CC(C)NC(=O)c1cc(C#N)cc(Nc2ccc(C(=O)N=C3NCCN3)cc2C2CC2)c1 [Compound 112, 4-({3-cyano-5-[(propan-2-yl)carbamoyl]phenyl}amino)-3-cyclopropyl-N-[imidazolidin-2-ylidene]benzamide]	710
O=C(N=C1NCCN1)c1cc(F)c(Nc2cccc(C(=O)N3CCOC(C(F)(F)F)C3)c2)c(C2CC2)c1 (stereo not drawn) [Compound 144, 3-cyclopropyl-5-fluoro-N-[imidazolidin-2-ylidene]-4-({3-[2-(trifluoromethyl)morpholine-4-carbonyl]phenyl}amino)benzamide]	48.1
CC(C)CC1(NC(=O)c2cccc(Nc3ccc(C(=O)N=C4NCCN4)cc3C3CC3)c2)CC1 [Compound 107, 3-cyclopropyl-N-[(2Z)-imidazolidin-2-ylidene]-4-[(3-{[1-(2-methylpropyl)cyclopropyl]carbamoyl}phenyl)amino]benzamide]	14

Reference: patent US12617756B2 (ABIVAX, priority 2019, dated 2026)
